From patent publication US6150385A, “1,3,4-thiadiazoles useful for the treatment of CMV infections” (Pharmacia & Upjohn Company, priority 1999, dated 2000)

Target: T1, HCMV polymerase (Human cytomegalovirus, UniProt P08546)
T1 construct: made in house; host or cells: SF-9 insect cells infected with recombinant baculovirus
Assay: HCMV polymerase assay (scintillation proximity assay)
Type: biochemical
Conditions: percentage of inhibition at 25 μM concentration in CMV polymerase assay
Summary of the method: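 Baculovirus/SF-9-expressed HCMV polymerase in 5.4 mM HEPES pH 7.5, 11.7 mM KCl, 4.5 mM MgCl2, 0.36 mg/ml BSA, 90 nM 3H-dTTP, with or without 2 mM CHAPS. Started with 6 nM biotinylated poly(dA)-oligo(dT), 30 min at 25 or 37 °C, EDTA-stopped, read by streptavidin-SPA counting; % inhibition at 25 μM.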

T1 sequence (P08546 whole entry): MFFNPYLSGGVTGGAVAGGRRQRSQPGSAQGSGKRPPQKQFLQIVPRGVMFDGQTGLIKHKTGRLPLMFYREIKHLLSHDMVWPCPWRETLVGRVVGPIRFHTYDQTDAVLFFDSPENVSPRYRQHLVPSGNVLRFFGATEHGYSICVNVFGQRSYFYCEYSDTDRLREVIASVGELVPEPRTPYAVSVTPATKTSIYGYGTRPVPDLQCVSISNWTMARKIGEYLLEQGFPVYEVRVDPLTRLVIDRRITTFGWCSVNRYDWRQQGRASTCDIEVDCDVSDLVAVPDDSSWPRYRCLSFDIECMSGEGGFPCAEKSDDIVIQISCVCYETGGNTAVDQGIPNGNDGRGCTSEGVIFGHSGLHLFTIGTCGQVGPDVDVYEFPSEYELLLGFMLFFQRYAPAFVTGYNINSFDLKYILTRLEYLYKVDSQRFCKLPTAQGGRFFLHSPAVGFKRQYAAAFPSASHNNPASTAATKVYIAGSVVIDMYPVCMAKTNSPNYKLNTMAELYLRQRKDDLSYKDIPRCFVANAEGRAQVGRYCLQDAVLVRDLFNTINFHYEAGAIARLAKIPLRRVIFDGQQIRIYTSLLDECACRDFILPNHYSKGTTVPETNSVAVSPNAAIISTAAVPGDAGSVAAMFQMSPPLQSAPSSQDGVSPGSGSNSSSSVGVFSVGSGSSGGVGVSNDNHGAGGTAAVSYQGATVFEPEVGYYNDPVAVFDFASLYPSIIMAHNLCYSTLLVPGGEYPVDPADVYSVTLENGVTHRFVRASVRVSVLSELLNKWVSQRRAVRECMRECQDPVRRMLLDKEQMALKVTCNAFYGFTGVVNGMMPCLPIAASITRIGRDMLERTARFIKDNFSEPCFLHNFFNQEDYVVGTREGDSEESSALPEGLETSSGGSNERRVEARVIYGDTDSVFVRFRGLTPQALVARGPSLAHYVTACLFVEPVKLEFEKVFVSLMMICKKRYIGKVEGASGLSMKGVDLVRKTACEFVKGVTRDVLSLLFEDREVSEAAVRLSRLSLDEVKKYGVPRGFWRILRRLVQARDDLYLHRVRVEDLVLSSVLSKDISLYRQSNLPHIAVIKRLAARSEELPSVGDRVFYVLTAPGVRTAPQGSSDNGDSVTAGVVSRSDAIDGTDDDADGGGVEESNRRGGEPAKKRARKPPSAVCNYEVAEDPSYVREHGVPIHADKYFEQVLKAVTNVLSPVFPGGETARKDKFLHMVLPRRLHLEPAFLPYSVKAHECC

Structure (SMILES) | inhibition at 25 µM
CCCCCCCC/C=C/CCCCCCCC(=O)Nc1nnc(NC2CC2)s1 [compound 28, (E)-N-[5-(cyclopropylamino)-1,3,4-thiadiazol-2-yl]-9-octadecenamide] | 92.6%
O=C(Nc1nnc(NCc2ccc(F)cc2)s1)c1c(Cl)cccc1Cl [compound 144, 2,6-dichloro-N-{5-[(4-fluorobenzyl)amino]-1,3,4-thiadiazol-2-yl}benzamide] | 55.2%
CCCCCCCC/C=C/CCCCCCCC(=O)Nc1nnc(NC2CCN(Cc3ccccc3)CC2)s1 [compound 253, (E)-N-{5-[(1-benzyl-4-piperidinyl)amino]-1,3,4-thiadiazol-2-yl}-9-octadecenamide] | 40.1%
CCCCCCCC/C=C/CCCCCCCC(=O)Nc1nnc(NCCC2CCCN2C)s1 (centres unmarked) [compound 5, (E)-N-(5-{[2-(1-methyl-2-pyrrolidinyl)ethyl]amino}-1,3,4-thiadiazol-2-yl)-9-octadecenamide] | 99.9%
CC(C)c1cc(C(C)C)c(C(=O)Nc2nnc(NCCN3CCCCC3)s2)c(C(C)C)c1 [compound 232, 2,4,6-triisopropyl-N-{5-[(2-piperidinoethyl)amino]-1,3,4-thiadiazol-2-yl}benzamide] | 42.2%
O=C(/C=C/c1ccccc1Cl)Nc1nnc(NCC2CC2)s1 [compound 34, (E)-3-(2-chlorophenyl)-N-{5-[(cyclopropylmethyl)amino]-1,3,4-thiadiazol-2-yl}-2-propenamide] | 89.9%
O=C(Nc1nnc(NCCCCc2ccccc2)s1)c1ccc([N+](=O)[O-])o1 [compound 131, 5-nitro-N-{5-[(4-phenylbutyl)amino]-1,3,4-thiadiazol-2-yl}-2-furamide] | 58%
NS(=O)(=O)c1ccc(CCNc2nnc(NC(=O)c3ccc(Br)cc3)s2)cc1 [compound 152, N-(5-{[4-(aminosulfonyl)phenethyl]amino}-1,3,4-thiadiazol-2-yl)-4-bromobenzamide] | 53.9%
NS(=O)(=O)c1ccc(CNc2nnc(NC(=O)c3ccc(I)cc3)s2)cc1 [compound 57, N-(5-{[4-(aminosulfonyl)benzyl]amino}-1,3,4-thiadiazol-2-yl)-4-iodobenzamide] | 76.3%
CCCCCCCC/C=C/CCCCCCCC(=O)Nc1nnc(NCCNC(C)=O)s1 [compound 123, (E)-N-(5-{[2-(acetylamino)ethyl]amino}-1,3,4-thiadiazol-2-yl)-9-octadecenamide] | 59.2%
N#Cc1ccc(C(=O)Nc2nnc(NCC(c3ccccc3)c3ccccc3)s2)cc1 [compound 83, 4-cyano-N-{5-[(2,2-diphenylethyl)amino]-1,3,4-thiadiazol-2-yl}benzamide] | 67.7%
O=C(Nc1nnc(NCc2cccs2)s1)c1c(Cl)cccc1Cl [compound 118, 2,6-dichloro-N-{5-[(2-thienylmetyl)amino]-1,3,4-thiadiazol-2-yl}benzamide] | 61.2%
O=C(/C=C/c1ccccc1)Nc1nnc(NCc2ccccn2)s1 [compound 139, (E)-3-phenyl-N-{5-[(2-pyridinylmethyl)amino]-1,3,4-thiadiazol-2-yl}-2-propenamide] | 56.2%
CC(C)c1cc(C(C)C)c(C(=O)Nc2nnc(NCCC3CCCN3C)s2)c(C(C)C)c1 (centres unmarked) [compound 109, 2,4,6-triisopropyl-N-(5-{[2-(1-methyl-2-pyrrolidinyl)ethyl]amino]-1,3,4-thiadiazol-2-yl)benzamide] | 63.4%
O=C(/C=C/c1ccccc1)Nc1nnc(NCc2ccncc2)s1 [compound 94, (E)-3-phenyl-N-{5-[(4-pyridinylmethyl)amino]-1,3,4-thiadiazol-2-yl}-2-propenamide] | 65.9%
O=C(Nc1nnc(NCc2ccncc2)s1)c1ccc(Cl)c(Cl)c1 [compound 263, 3,4-chloro-N-{5-[(4-pyridinylmethyl)amino]-1,3,4-thiadiazol-2-yl}benzamide] | 39.4%
O=C(/C=C/c1ccccc1Cl)Nc1nnc(NCc2cccs2)s1 [compound 164, (E)-3-(2-chlorophenyl)-N-{5-[(2-thienylmethyl)amino]-1,3,4-thiadiazol-2-yl}-2-propenamide] | 51.4%
CCCCCCCC/C=C/CCCCCCCC(=O)Nc1nnc(NCc2cccnc2)s1 [compound 72, (E)-N-{5-[(3-pyridinylmethyl)amino]-1,3,4-thiadiazol-2-yl}-9-octadecenamide] | 69.3%
O=C(Nc1nnc(NCCCN2CCCC2=O)s1)c1cc(F)cc(F)c1 [compound 228, 3,5-difluoro-N-(5-{[3-(2-oxo-1-pyrrolidinyl)propyl]amino}-1,3,4-thiadiazol-2-yl)benzamide] | 42.8%
O=C(Nc1nnc(NCCCCc2ccccc2)s1)c1cc2ccccc2s1 [compound 52, N-{5-[(4-phenylbutyl)amino]-1,3,4-thiadiazol-2-yl}-1-benzothiophen-2-carboxamide] | 78.7%
O=C(Nc1nnc(NCCc2ccccc2)s1)c1ccc2c(c1)C(=O)OC2=O [compound 24, 1,3-dioxo-N-[5-(phenethylamino)-1,3,4-thiadiazol-2-yl]-1,3-dihydro-2-benzofuran-5-carboxamide] | 95.6%
NS(=O)(=O)c1ccc(CNc2nnc(NC(=O)c3cc4ccccc4s3)s2)cc1 [compound 223, N-(5-{[4-(aminosulfonyl)benzyl]amino}-1,3,4-thiadiazol-2-yl)-1-benzothiophene-2-carboxamide] | 43.1%
CCCCCCCC/C=C/CCCCCCCC(=O)Nc1nnc(NCCc2ccccc2)s1 [compound 105, (E)-N-[5-(phenethylamino)-1,3,4-thiadiazol-2-yl]-9-octadecenamide] | 64.6%
COc1ccccc1C(=O)Nc1nnc(NCC(c2ccccc2)c2ccccc2)s1 [compound 224, N-{5-[(2,2-diphenylethyl)amino]-1,3,4-thiadiazol-2-yl}-2-methoxybenzamide] | 43%
CCCCCCCC/C=C/CCCCCCCC(=O)Nc1nnc(NC2CCN(C(=O)OCC)CC2)s1 [compound 91, ethyl 4-({5-[(E)-9-octadecenoylamino]-1,3,4-thiadiazol-2-yl}amino)tetrahydro-1(2H)-pyridinecarboxylate] | 66.1%

Further lines, results first:

inhibition at 25 µM | Structure (SMILES)
32.2% | O=C(Nc1nnc(NCCc2c[nH]cn2)s1)c1cc2ccccc2s1 [compound 330]
23.5% | O=C(Nc1nnc(NCc2cccs2)s1)c1ccc(I)cc1 [compound 425, 4-iodo-N-{5-[(2-thienylmethyl)amino]-1,3,4-thiadiazol-2-yl}benzamide]
28.7% | N#Cc1ccc(C(=O)Nc2nnc(NCC3CCCCC3)s2)cc1 [compound 364, 4-cyano-N-{5-[(cyclohexylmethyl)amino]-1,3,4-thiadiazol-2-yl}benzamide]
33.6% | CC(C)c1cc(C(C)C)c(C(=O)Nc2nnc(NCCc3c[nH]cn3)s2)c(C(C)C)c1 [compound 317, N-(5-{[2-(1H-imidazol-4-yl)ethyl]amino}-1,3,4-thiadiazol-2-yl)-2,4,6-triisopropylbenzamide]
33.2% | O=C(CCCCCl)Nc1nnc(NCc2ccc(F)cc2)s1 [compound 321, 5-chloro-N-{5-[(4-fluorobenzyl)amino]-1,3,4-thiadiazol-2-yl}pentanamide]
33.8% | CCOc1ccc2ccccc2c1C(=O)Nc1nnc(NC2CCC2)s1 [compound 314, N-[5-(cyclobutylamino)-1,3,4-thiadiazol-2-yl]-2-ethoxy-1-naphthamide]
33.9% | CCCCCCCC/C=C/CCCCCCCC(=O)Nc1nnc(NCc2ccc(Cl)c(Cl)c2)s1 [compound 313, (E)-N-{5-[(3,4-dichlorobenzyl)amino]-1,3,4-thiadiazol-2-yl}-9-octadecenamide]
33.6% | O=C(CCCCCl)Nc1nnc(NC2CCCCCC2)s1 [compound 316, 5-chloro-N-[5-(cycloheptylamino)-1,3,4-thiadiazol-2-yl]pentanamide]
31.2% | CCCCCCCCCCCNc1nnc(NC(=O)/C=C/c2ccccc2)s1 [compound 342, (E)-3-phenyl-N-[5-(undecylamino)-1,3,4-thiadiazol-2-yl]-2-propenamide]
35.5% | CCOc1ccc2ccccc2c1C(=O)Nc1nnc(NCCC(=O)OC(C)(C)C)s1 [compound 293, tert-butyl 3-[(5-{[(2-ethoxy-1-naphthyl)carbonyl]amino}-1,3,4-thiadiazol-2-yl)amino]propanoate]
23.5% | CC(C)(C)OC(=O)CCNc1nnc(NC(=O)/C=C/c2ccccc2Cl)s1 [compound 426, tert-butyl 3-[(5-{[(E)-3-(2-chlorophenyl)-2-propenoyl]amino}-1,3,4-thiadiazol-2-yl)amino]propanoate]
22.7% | O=C(Nc1nnc(NCCc2ccccc2)s1)c1cc(F)cc(F)c1 [compound 437, 3,5-difluoro-N-[5-(phenethylamino)-1,3,4-thiadiazol-2-yl]benzamide]
33% | Cc1ccc(C(=O)Nc2nnc(NC3CCCCCC3)s2)cc1 [compound 323, N-[5-(cycloheptylamino)-1,3,4-thiadiazol-2-yl]-4-methylbenzamide]
31.6% | O=C(Nc1nnc(NCCc2cccs2)s1)c1cccc([N+](=O)[O-])c1 [compound 337, 3-nitro-N-(5-{[2-(2-thienyl)ethyl]amino}-1,3,4-thiadiazol-2-yl)benzamide]
35% | O=C(Nc1nnc(NCCC(c2ccccc2)c2ccccc2)s1)c1ccc([N+](=O)[O-])o1 [compound 298, N-{5-[(3,3-diphenylpropyl)amino]-1,3,4-thiadiazol-2-yl}-5-nitro-2-furamide]
30.3% | O=C(Nc1nnc(NCc2ccco2)s1)c1cc2ccccc2s1 [compound 349, N-{5-[(2-furylmethyl)amino]-1,3,4-thiadiazol-2-yl}-1-benzothiophene-2-carboxamide]
